Test results reported in US20100285959A1, “HERBICIDAL MIXTURES” (priority 2006, published 2010).

Columns and labels:
velvetleaf (ABUTH) = test: Test 2 field trial, preemergence; type: in vivo, Abutilon theophrasti; design: scale not given here
Excerpt: Corn seeds (hybrid ‘Pioneer 31G96’) were planted in mid spring season, 3.8 cm deep in a clay loam soil having 2% organic matter and a pH of 6.6. Plots were 6.1 m long by 3.0 m wide with rows spaced 76 cm apart. Seeds were spaced 15 cm apart within the rows. The field was managed using conventional tillage practices. […] A few of the weed species could not be evaluated at every timing. […] Results are the means of the three replicates.

[1] = system: smallflower buttercup (RANAB); test: Test 9 field trial, emerged weeds before corn planting; type: in vivo, Ranunculus abortivus; settings: g a.i./ha: Cpd 2 100, Glyphosate 1540, Paraquat 1150
Experimental: (§1) Corn seeds (hybrid ‘Pioneer 34M91 RR’) were planted in mid spring season, about 3.8 cm deep in a silty clay loam soil having a pH of 6.7. Plots were 9.1 m long by 3.0 m. The field was managed using no-till practices. […] Compound 2 and paraquat treatments, alone and in combination, also included a surfactant. Glyphosate, alone and with Compound 2, included ammonium sulfate in the treatment mixture. […] The effects on the weeds in the treated plots and untreated control plots were recorded 7, 14, 23, 30 and 57 days after application. Most of the weed species could not be evaluated at every timing. Corn response was only evaluated 57 days after application. […] Results are the means of the three replicates.

[2] = system: henbit deadnettle (LAMAM); test: as above; type: in vivo, Lamium amplexicaule; settings: g a.i./ha: Cpd 2 100, Glyphosate 1540, Paraquat 1150
Experimental: as §1

arrowleaf sida (SIDRH) = test: Test 12 field trial, preemergence; type: in vivo, Sida rhombifolia; design: scale not given here; settings: Cpd 2 or Cpd 1 62 g a.i./ha, Diuron 2000 g a.i./ha
Excerpt: (§2) In early-mid spring season, corn seeds (hybrid ‘Pioneer 3041’) were planted 5 cm deep and sugarcane nodes (variety RB-72.454) were planted 10 cm deep in separate plots in a clay soil having 2.6% organic matter and a pH of 5.6. Plots were 24 m long by 1.5 m wide with rows spaced 80 cm (corn) or 140 cm (sugarcane) apart. Corn seeds were spaced 15 cm apart and sugarcane nodes were spaced 10 cm apart within the rows. At the same time, weed seeds were broadcast over the surface of separate plots without a crop, one weed species per plot. The weed plots were rotary tilled to incorporate the weed seeds to a variety of depths. The field was managed using conventional tillage practices.

wheat (TRZAW) = test: Test 30 growth chamber, postemergence; type: in vivo, Triticum aestivum
Experimental: A growth chamber test was conducted to evaluate the effects on the plant species wheat (TRZAW, Triticum aestivum L.) and barley (HORVX, Hordeum vulgare L.) with mixtures of Compound 1 and Compound 2 with glycerol. Wheat and barley seeds were planted in a sandy loam soil having 0.9% organic matter and a pH of 6.3. […] Wheat and barley plants were treated postemergence at the two leaf growth stage for Compound 1 and at the three leaf growth stage for Compound 2. Each treatment was replicated one time. […] Plants were watered as needed. […] Colby's Equation was used to determine herbicidal effects expected from the mixtures.

[3] = system: Florida beggarweed (DEDTO); test: Test 12 field trial, preemergence; type: in vivo, Desmodium tortuosum; design: scale not given here; settings: Cpd 2 or Cpd 1 62 g a.i./ha, Diuron 2000 g a.i./ha
Excerpt: as §2

redroot pigweed (AMARE) = test: Test 7 field trial, preemergence; type: in vivo, Amaranthus retroflexus
Experimental: (§3) Plots were 7.6 m long by 3.0 m wide with rows spaced 76 cm apart. Seeds were spaced 15 cm apart within the rows. The field was managed using conventional tillage practices. […] Wild radish was evaluated 14 and 28 days after application. […] Results are the means of the three replicates.

wild radish (RAPRA) = test: Test 7 field trial, preemergence; type: in vivo, Raphanus raphanistrum
Experimental: as §3

field poppy (PAPRH) = test: Test 21 growth chamber, postemergence; type: in vivo, Papaver rhoeas; settings: 19 DAA
Experimental: (§4) A test was conducted to evaluate the effects on winter barley (HORVW, Hordeum vulgare L.), winter wheat (TRZAW, Triticum aestivum L.), and several weed species, of mixtures of Compound 2 with the commercial herbicide (2,4-dichlorophenoxy)acetic acid (2,4-D), an auxin mimic. […] Plants were treated postemergence at the 2-4 leaf growth stage, and each treatment was replicated one time. […] Plants were watered as needed. […] Results are from single replicates.

common chickweed (STEME) = test: Test 21 growth chamber, postemergence; type: in vivo, Stellaria media; settings: 19 DAA
Experimental: as §4

wild buckwheat (POLCO) = test: Test 22 growth chamber, postemergence; type: in vivo, Polygonum convolvulus; settings: 25 DAA
Experimental: as §4, with “species” for “species,”, “herbicides” for “herbicide”, “(2,4-D) and (4-chloro-2-methylphenoxy)acetic acid (MCPA),” for “(2,4-D), an”, “mimics.” for “mimic.”, “stage, except KCHSC, SASKR” for “stage,”, “STEME which were in the 4-8 leaf growth stage. Each” for “each”

[4] = 18 DAA, g a.i./ha: Cpd 2 25, Atrazine 250
[5] = 18 DAA, g a.i./ha: Cpd 2 50, Atrazine 500
[6] = 18 DAA, g a.i./ha: Cpd 2 75, Atrazine 750
[7] = 18 DAA, g a.i./ha: Cpd 2 100, Atrazine 1000
[8] = 18 DAA, g a.i./ha: Cpd 2 150, Atrazine 1500
[9] = 28 DAA, g a.i./ha: Cpd 2 25, Atrazine 250
[10] = 28 DAA, g a.i./ha: Cpd 2 50, Atrazine 500
[11] = 28 DAA, g a.i./ha: Cpd 2 75, Atrazine 750
[12] = 28 DAA, g a.i./ha: Cpd 2 100, Atrazine 1000
[13] = 28 DAA, g a.i./ha: Cpd 2 150, Atrazine 1500
[14] = 55 DAA, g a.i./ha: Cpd 2 25, Atrazine 250
[15] = 55 DAA, g a.i./ha: Cpd 2 50, Atrazine 500
[16] = 55 DAA, g a.i./ha: Cpd 2 75, Atrazine 750
[17] = 55 DAA, g a.i./ha: Cpd 2 100, Atrazine 1000
[18] = 55 DAA, g a.i./ha: Cpd 2 150, Atrazine 1500

## CCNc1nc(Cl)nc(NC(C)C)n1 [Atrazine, atrazine, reference compound]
Velvetleaf (ABUTH); [4]
  ABUTH Obs: 15
Velvetleaf (ABUTH); [5]
  ABUTH Obs: 45
Velvetleaf (ABUTH); [6]
  ABUTH Obs: 55
Velvetleaf (ABUTH); [7]
  ABUTH Obs: 62
Velvetleaf (ABUTH); [8]
  ABUTH Obs: 64
Velvetleaf (ABUTH); [9]
  ABUTH Obs: 37
Velvetleaf (ABUTH); [10]
  ABUTH Obs: 78
Velvetleaf (ABUTH); [11]
  ABUTH Obs: 85
Velvetleaf (ABUTH); [12]
  ABUTH Obs: 98
Velvetleaf (ABUTH); [13]
  ABUTH Obs: 99
Velvetleaf (ABUTH); [14]
  ABUTH Obs: 68
Velvetleaf (ABUTH); [15]
  ABUTH Obs: 63
Velvetleaf (ABUTH); [16]
  ABUTH Obs: 87
Velvetleaf (ABUTH); [17]
  ABUTH Obs: 100
Velvetleaf (ABUTH); [18]
  ABUTH Obs: 99

## O=C(O)CNCP(=O)(O)O [Glyphosate]
[1]; 7 DAA
  RANAB Obs: 50%
[1]; 14 DAA
  RANAB Obs: 80%
[1]; 23 DAA
  RANAB Obs: 95%
[1]; 30 DAA
  RANAB Obs: 100%
[2]; 7 DAA
  LAMAM Obs: 25%
[2]; 14 DAA
  LAMAM Obs: 37%
[2]; 23 DAA
  LAMAM Obs: 79%
[2]; 30 DAA
  LAMAM Obs: 95%
[2]; 57 DAA
  LAMAM Obs: 66%

## Nc1nc(C2CC2)nc(C(=O)O)c1Cl [Compound 1, 6-amino-5-chloro-2-cyclopropyl-4-pyrimidinecarboxylic acid]
Arrowleaf sida (SIDRH); 15 DAA
  SIDRH Obs: 60
Arrowleaf sida (SIDRH); 29 DAA
  SIDRH Obs: 95
Arrowleaf sida (SIDRH); 48 DAA
  SIDRH Obs: 100
Arrowleaf sida (SIDRH); 61 DAA
  SIDRH Obs: 95
Wheat (TRZAW); 18 DAA, Cpd 1 1 g a.i./ha
  TRZAW Obs: 30%
Wheat (TRZAW); 18 DAA, Cpd 1 4 g a.i./ha
  TRZAW Obs: 35%
Wheat (TRZAW); 18 DAA, Cpd 1 16 g a.i./ha
  TRZAW Obs: 45%
[3]; 15 DAA
  DEDTO Obs: 95
[3]; 29 DAA
  DEDTO Obs: 75
[3]; 48 DAA
  DEDTO Obs: 60
[3]; 61 DAA
  DEDTO Obs: 60

## CCc1cccc(C)c1N(C(=O)CCl)[C@@H](C)COC [S-Metolachlor, S-metolachlor, reference compound]
Redroot pigweed (AMARE); 14 DAA, 1000 g a.i./ha
  AMARE Obs: 97%
Redroot pigweed (AMARE); 28 DAA, 1000 g a.i./ha
  AMARE Obs: 78%
Redroot pigweed (AMARE); 62 DAA, 1000 g a.i./ha
  AMARE Obs: 15%
Wild radish (RAPRA); 14 DAA, 1000 g a.i./ha
  RAPRA Obs: 40%
Wild radish (RAPRA); 28 DAA, 1000 g a.i./ha
  RAPRA Obs: 15%

## COC(=O)c1nc(C2CC2)nc(N)c1Cl [Compound 2, methyl 6-amino-5-chloro-2-cyclopropyl-4-pyrimidinecarboxylate]
Arrowleaf sida (SIDRH); 15 DAA
  SIDRH Obs: 40
Arrowleaf sida (SIDRH); 29 DAA
  SIDRH Obs: 90
Arrowleaf sida (SIDRH); 48 DAA
  SIDRH Obs: 70
Arrowleaf sida (SIDRH); 61 DAA
  SIDRH Obs: 60
Field poppy (PAPRH); Cpd 2 alone 16 g a.i./ha
  Postemergence PAPRH Obs: 65
Common chickweed (STEME); Cpd 2 alone 16 g a.i./ha
  Postemergence STEME Obs: 65
[1]; 7 DAA
  RANAB Obs: 45%
[1]; 14 DAA
  RANAB Obs: 40%
[1]; 23 DAA
  RANAB Obs: 60%
[1]; 30 DAA
  RANAB Obs: 65%
Redroot pigweed (AMARE); 14 DAA, 125 g a.i./ha
  AMARE Obs: 97%
Redroot pigweed (AMARE); 14 DAA, 250 g a.i./ha
  AMARE Obs: 100%
Redroot pigweed (AMARE); 14 DAA, 500 g a.i./ha
  AMARE Obs: 100%
Redroot pigweed (AMARE); 28 DAA, 125 g a.i./ha
  AMARE Obs: 92%
Redroot pigweed (AMARE); 28 DAA, 250 g a.i./ha
  AMARE Obs: 100%
Redroot pigweed (AMARE); 28 DAA, 500 g a.i./ha
  AMARE Obs: 100%
Redroot pigweed (AMARE); 62 DAA, 125 g a.i./ha
  AMARE Obs: 80%
Redroot pigweed (AMARE); 62 DAA, 500 g a.i./ha
  AMARE Obs: 100%
Wild buckwheat (POLCO); Cpd 2 alone 4 g a.i./ha
  Postemergence POLCO Obs: 55
Wild buckwheat (POLCO); Cpd 2 alone 8 g a.i./ha
  Postemergence POLCO Obs: 60
Wild buckwheat (POLCO); Cpd 2 alone 16 g a.i./ha
  Postemergence POLCO Obs: 60
Wild radish (RAPRA); 14 DAA, 125 g a.i./ha
  RAPRA Obs: 35%
Wild radish (RAPRA); 14 DAA, 250 g a.i./ha
  RAPRA Obs: 53%
Wild radish (RAPRA); 14 DAA, 500 g a.i./ha
  RAPRA Obs: 73%
Wild radish (RAPRA); 28 DAA, 250 g a.i./ha
  RAPRA Obs: 38%
Wild radish (RAPRA); 28 DAA, 500 g a.i./ha
  RAPRA Obs: 58%
[2]; 7 DAA
  LAMAM Obs: 22%
[2]; 14 DAA
  LAMAM Obs: 27%
[2]; 23 DAA
  LAMAM Obs: 50%
[2]; 30 DAA
  LAMAM Obs: 65%
[2]; 57 DAA
  LAMAM Obs: 89%
Wheat (TRZAW); 17 DAA, Cpd 2 1 g a.i./ha
  TRZAW Obs: 20%
Wheat (TRZAW); 17 DAA, Cpd 2 4 g a.i./ha
  TRZAW Obs: 20%
Wheat (TRZAW); 17 DAA, Cpd 2 16 g a.i./ha
  TRZAW Obs: 35%
[3]; 15 DAA
  DEDTO Obs: 100
[3]; 29 DAA
  DEDTO Obs: 70
[3]; 48 DAA
  DEDTO Obs: 80
[3]; 61 DAA
  DEDTO Obs: 60
Velvetleaf (ABUTH); [4]
  ABUTH Obs: 13
Velvetleaf (ABUTH); [5]
  ABUTH Obs: 28
Velvetleaf (ABUTH); [6]
  ABUTH Obs: 45
Velvetleaf (ABUTH); [7]
  ABUTH Obs: 45
Velvetleaf (ABUTH); [8]
  ABUTH Obs: 52
Velvetleaf (ABUTH); [9]
  ABUTH Obs: 13
Velvetleaf (ABUTH); [10]
  ABUTH Obs: 18
Velvetleaf (ABUTH); [11]
  ABUTH Obs: 65
Velvetleaf (ABUTH); [12]
  ABUTH Obs: 63
Velvetleaf (ABUTH); [13]
  ABUTH Obs: 73
Velvetleaf (ABUTH); [14]
  ABUTH Obs: 38
Velvetleaf (ABUTH); [15]
  ABUTH Obs: 55
Velvetleaf (ABUTH); [16]
  ABUTH Obs: 63
Velvetleaf (ABUTH); [17]
  ABUTH Obs: 68
Velvetleaf (ABUTH); [18]
  ABUTH Obs: 78

## O=C(O)COc1ccc(Cl)cc1Cl [2,4-D, (2,4-dichlorophenoxy)acetic acid]
Field poppy (PAPRH); 2,4-D alone 125 g a.i./ha
  Postemergence PAPRH Obs: 35
Field poppy (PAPRH); 2,4-D alone 250 g a.i./ha
  Postemergence PAPRH Obs: 35
Common chickweed (STEME); 2,4-D alone 125 g a.i./ha
  Postemergence STEME Obs: 50
Common chickweed (STEME); 2,4-D alone 250 g a.i./ha
  Postemergence STEME Obs: 50
Wild buckwheat (POLCO); 2,4-D or MCPA alone 250 g a.i./ha
  Postemergence POLCO Obs: 45
